Experimental data as given in patent US8455523B2, “Compositions and methods for treating hyperlipidemias” (The Research Foundation of State University of New York, priority 2010, dated 2013).

What was measured:
[1] = tested on: C57Bl/6J mice fed either a chow or western diet; experiment: MTP inhibitor BMS-212122-01 with or without lovastatin, pioglitazone or PBA in chow or western diet fed C57Bl/6J mice; format: in vivo; conditions: for hepatic triglycerides: MTPi 1 mg/kg/day one week, lovastatin 50 or pioglitazone 25 mg/kg/day added to MTPi; for hepatic free cholesterol: lovastatin or pioglitazone co-administered with MTPi; for Hepatic free fatty acids (FFA): lovastatin or pioglitazone with MTPi; for hepatic total and free cholesterol / hepatic triglycerides compared to western diet fed controls / plasma lipids: drug alone, one week; for plasma ALT/AST levels: lovastatin added to MTPi
Description: FIG. 13. Age matched wildtype C57/Bl6J animals chow fed animals were treated with DMSO (control) or MTP inhibitor (MTPi) for one week. […] All drugs were administered by oral gavage. Animals were sacrificed on day 7 and plasma and livers were harvested and analyzed. * represent comparison to DMSO control; # represent comparisons to WD control; @ represent comparisons to WD MTP inhibitor treatment.
FIG. 18. Age matched wildtype C57/BL6J were fed WD for one month and were administered MTPi, or 4-phenylbutyric acid (PBA) everyday for one week. All drugs were administered by oral gavage. Animals were sacrificed on day 7 and livers were harvested. * represent comparison DMSO control; # represent comparisons to HF MTP inhibitor treated animals.
C57BL/6J Black 6 mice (stock number 000664) were obtained from Jackson Laboratory and used for chow fed and western diet fed experiments. MTP inhibitor (BMS […]) (1 mg/kg/day), Lovastatin, Pioglitazone (Toronto Research Chemicals P471000) (25 mg/kg/day) and 4-phenylbutyric acid (Calbiochem 820986) (1 g/kg/day) were administered by oral gavage. Chow fed animals were treated for one week with either DMSO or MTP inhibitor. Western diet fed animals were fed DMSO, MTP inhibitor, Pioglitazone, MTP inhibitor+Pioglitazone, Lovastatin, MTP inhibitor+Lovastatin, 4-phenylbutyric acid, and MTP inhibitor+4-phenylbutyric acid. Chow fed animals were also injected with either PBS or Tunicamycin and animals were sacrificed at 4, 8, 12 and 24 hours.
(§1) All animals were kept in 07:00-19:00 h lighting schedule. […] Food was withdrawn 16 h before the sacrifice of the mice. On the day of the experiment, mice were anesthetized and blood was collected from the heart. Liver was collected, washed in ice-cold PBS, cut into small pieces and used for lipid extraction, histological staining, to measure different protein activities/quantities and for mRNA analysis. Lipids were extracted from the tissue homogenates following the Bligh and Dyer method. Triglyceride (Infinity TM Triglyceride, TR22421) and total cholesterol (Infinity TM Cholesterol, TR13421) levels in the tissues were determined using commercial kits (Thermo Scientific). Free cholesterol and free fatty acid levels were measured using kits from Wako Chemicals (Germany). Esterified cholesterol was calculated by subtracting the free cholesterol from the total cholesterol.
We next studied the effects of chemical inhibition of MTP in C57Bl/6J mice fed either a chow or western diet (WD) for 5 weeks. Chow fed animals were orally gavaged with either DMSO or MTP inhibitor BMS-212122-01 (MTPi; 1 mg/kg/day) for one week. WD fed animals were treated with DMSO, MTP inhibitor with or without lovastatin (50 mg/kg/day) or pioglitazone (25 mg/kg/day) daily by oral gavage for one week.

[2] = tested on: C57Bl/6J mice fed western diet; experiment: MTP inhibitor CP-346086 with or without lovastatin or WY14643 in western diet fed mice: plasma/hepatic lipids, AST/ALT; format: in vivo; conditions: for hepatic cholesterol (total, free and esterified): co-drug given with MTPi, compared to MTPi group
Description: FIGS. 4a and 4b. Effect of MTP inhibitor (CP-34086) on plasma lipids and lipoproteins in C57Bl/6J mice fed western diet ad libitum for 8 weeks. MTP inhibitor solubilzed in DMSO was administered orally for one week (15 mg/kg/day) along with either DMSO (MTPi), lovastatin (50 mg/kg/day), or WY14643 (10 mg/kg/day). Control mice were gavaged with DMSO only.
FIGS. 5a and 5b. Liver samples from FIG. 4 were used to measure MTP activity (A) and hepatic lipids (B-E). Stars on MPTi group represent comparison between Control and MTPi groups.
Control group (n=4) received daily oral gavage of DMSO alone. MTPi group received 15 mg/kg/day MTP inhibitor CP-346086 (MTPi) once daily. […] Plasma total and HDL cholesterol were unaffected by MTPi. Combined treatment of MTPi and lovastatin decreased plasma LDL cholesterol. […] Next, we measured changes in plasma hepatic enzymes (FIGS. 4G-H). […] These studies indicate that apart from lowering plasma triglyceride, MTPi enhances plasma AST/ALT and these increases can be avoided by the co-administration of lovastatin.

Reversa mice = conditions: for plasma cholesterol / plasma triglycerides: MTP deficient (plpC) Reversa mice, oral 30 days
Description: FIG. 11. Reversa animals were injected with plpC every other day for one week. Lovastatin, T-090317 and WY14643 were administered by oral gavage everyday for 30 days after the first injection. Animals were sacrificed on day 30 and plasma and livers were harvested and analyzed. * represent comparison to PBS injected animals and # represent comparisons to plpC control.
Animals: Mttp^tm2Sgy LdIr^tm1Her Apob^tm2Sgy Tg(Mx1-cre)1Cgn/J mice (Reversa) (stock number 004192) were obtained from Jackson Laboratories. Male reversa mice were used to study the effect of mttp gene deletion on plasma and tissue lipids. These animals are transgenic for apolipoprotein B, LDLR^−/− and floxed at exon 1 of the mttp locus. In addition, these mice express cre recombinase under the control of the Mx1 promoter, which is induced after intraperitoneal injection of polyinosinic polycytidylic ribonucleic acid (plpC—Sigma) in the liver, spleen and intestine. Injection of plpC activates the cre recombinase and deletes the mttp gene in the liver and intestines. Reversa mice were injected with either PBS or plpC. Mice injected with plpC were orally gavaged with DMSO (Sigma-Aldrich D8418), DMSO+Lovastatin (50 mg/kg/day) (Calbiochem 438186), DMSO+T0901317 (50 mg/kg/day) (Calbiochem 575310), or DMSO+WY14643 (10 mg/kg/day) (Calbiochem 681725). Mice injected with plpC were also injected with either PBS or Ω-3 fatty acids (SUNY Downstate Medical Center). All animals were given supplemental treatments for 30 days.
as §1
To determine whether accumulation of hepatic triglyceride and free cholesterol is related to increases in plasma AST/ALT, we sought to reduce these lipids using different chemical compounds of known physiologic effects. Mice injected with plpC were orally gavaged with DMSO, DMSO+Lovastatin (50 mg/kg/day), DMSO+T0901317 (50 mg/kg/day), or DMSO+WY14643 (10 mg/kg/day). Lovastatin (Lova), an HMG-CoA reductase (HMGR) inhibitor, and T0901317 (T0), an LXR agonist, are expected to decrease hepatic free cholesterol by inhibiting endogenous cholesterol synthesis and increasing cholesterol efflux, respectively. WY14643 (WY), a PPARα agonist, increases β-oxidation of fatty acids and lowers hepatic triglycerides.
To evaluate the efficacy of Ω-3 FA in reducing hepatic triglyceride, plpC injected mice were treated with intraperitoneal injection of Ω-3 FA (3 mg/kg/2 day) or Ω-3 FA and Lova.

[3] = plpC-injected Reversa mice, Lova 50, T0 50, WY 10 mg/kg/day oral or Ω-3 FA 3 mg/kg/2 day ip, vs plpC control

| Compound | hepatic triglycerides [1] | hepatic free cholesterol ([1]; MTPi one week) | Hepatic free fatty acids (FFA) ([1]; MTPi one week) | hepatic total and free cholesterol ([1]; WD fed) | hepatic triglycerides compared to western diet fed controls ([1]; WD fed) | plasma lipids ([1]; WD fed) | rise in intestinal free cholesterol seen with MTPi alone ([1]; WD fed, in conjunction with MTPi) | Plasma FFA levels ([1]; high fat feeding, MTPi one week, co-drugs with MTPi) | plasma AST/ALT ([2]; WD 8 weeks, CP-346086 15 mg/kg/day 1 week ± lovastatin 50 or WY14643 10 mg/kg/day, MTPi vs control, co-drugs vs MTPi) | plasma lipids ([2]; WD 8 weeks, WY14643 10 mg/kg/day given along with MTPi, 1 week) | hepatic cholesterol (total, free and esterified) [2] | plasma cholesterol (Reversa mice) | plasma triglycerides (Reversa mice) | hepatic free and total cholesterol (Reversa mice; [3]) | hepatic triglycerides ([1]; listed as Lovastatin) | plasma ALT/AST levels ([1]; MTPi one week) | plasma ALT/AST levels ([1]; MTPi one week, listed as Lovastatin) | Cardiac tissue lipid profiles ([1]; WD fed, MTPi ± pioglitazone or lovastatin) | intestinal lipids ([1]; WD fed, with MTPi) | hepatic triglyceride (Reversa mice; [3]) |
| --- | --- | --- | --- | --- | --- | --- | --- | --- | --- | --- | --- | --- | --- | --- | --- | --- | --- | --- | --- | --- |
| CCc1ccc(CCOc2ccc(CC3SC(=O)NC3=O)cc2)nc1 (racemic) [pioglitazone, (RS)-5-(4-[2-(5-ethylpyridin-2-yl)ethoxy]benzyl)thiazolidine-2,4-dione] | abrogated | reduced | resistant | decreased | slightly lower | no effect | attenuated | completely abrogated | – | – | – | – | – | – | – | – | – | – | – | – |
| Cc1cccc(Nc2cc(Cl)nc(SCC(=O)O)n2)c1C [WY14643] | – | – | – | – | – | – | – | – | no significant effect | did not affect | no significant effect | no effect | no effect | no effect | – | – | – | – | – | – |
| CC[C@H](C)C(=O)O[C@H]1C[C@@H](C)C=C2C=C[C@H](C)[C@H](CC[C@@H]3C[C@@H](O)CC(=O)O3)[C@H]21 [lovastatin] | – | reduced | resistant | decreased | no effect | no effect | – | – | – | – | significantly lower | significantly reduced | no effect | significantly reduced | without affecting | lowered | abrogated increases | no changes | no effect | no effect |
